Data from patent US7846474B2, “Use of bisphosphonates for the treatment of osteogenesis imperfecta” (Gador S.A., priority 1999, dated 2010).

How the values were obtained:
growth of cartilage = conditions: in vivo; cited from earlier work
[1] = tested on: children with Osteogenesis Imperfecta; test: Continuous disodium pamidronate treatment of children with Osteogenesis Imperfecta (absorptiometry, biochemical markers, quantitative computerized tomography of the tibia); type: in vivo, human
Description: The doses were adjusted to the patient's condition with a mean of 3.5 mg/Kg of body weight/day by oral administration, or 20 mg per dose, every 3-6 months, by intravenous administration in one of the cases.
The latter can be attributed to the scarce development of inertia due to the internal osseous lack of resorption in the diaphysis. In FIG. 2 it can be observed that in children with normal development, there exists a range of cortical mineralization which contributes to the diaphysial stability (resistance to deformation). This range is of approximately 1020-1100 mg/cm3.
The administration period of bisphosphonates was 2-4.5 years, indicating the existence of a wide interindividual variability in order to obtain the “mineralizing” effect and the inconvenience of adopting fixed periods of treatments.

SMILES	effect on the growth of cartilage (growth of cartilage)	cortical mineralization range reached (cortical mineral density of the tibia, vDMO) ([1]; FIG. 2, range of normal children that contributes to diaphysial stability, reached by treated OI children)	osseous metabolic turnover (biochemical markers of osseous resorption and formation) ([1]; OI type III/IV children, continuous scheme 2.5-4 years, mean 3.5 mg/Kg/day oral or 20 mg i.v. every 3-6 months, urinary hydroxyproline/creatinine, serum alkaline phosphatase, osteocalcine)	total apparent mineral density of the lumbar vertebrae and the neck of the femur ([1]; osseous absorptiometries, continuous scheme 2.5-4 years)
CN(C)CCC(O)(P(=O)(O)O)P(=O)(O)O [olpadronate]	not to affect the growth of cartilage	–	–	–
NCCC(O)(P(=O)(O)O)P(=O)(O)O [pamidronate, disodium pamidronate]	–	1020-1100 mg/cm3	reduction of the osseous metabolic turnover	progressive improvement
